Laboratory results as given in patent publication US12590099B2, “Inhibitors of histone deacetylase useful for the treatment or prevention of HIV infection” (Merck Sharp & Dohme LLC, priority 2018, dated 2026).

Legend:
Format in all cases: biochemical
[1] = target: T1, Recombinant human HDAC3/SMRT heterodimer (Homo sapiens, UniProt O15379); test: Human HDAC enzyme inhibitor Fluor-de-Lys assay, HDAC3/SMRT; conditions: recombinant human HDAC3/SMRT, Fluor-de-Lys assay
T1 construct: FLAG (C); made in house

[2] = target: T2, Recombinant human HDAC2 (Homo sapiens, UniProt Q92769); test: Human HDAC enzyme inhibitor Fluor-de-Lys assay, HDAC2; conditions: recombinant human HDAC2, Fluor-de-Lys assay
T2 construct: Full length human HDAC2-FLAG was expressed in baculovirus infected Sf9 cells; FLAG (C); made in house; host or cells: Sf9 (baculovirus)
Outline: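 Fluor-de-Lys format at room temperature (23° C.): compounds titrated 10-point, 1:3, preincubated with HDAC before substrate addition. Developer with excess HDAC inhibitor ends the reaction, and trypsin-liberated AMC fluorescence is the read-out.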

[3] = target: T3, HDAC6 (Homo sapiens, UniProt Q9UBN7); test: Human HDAC enzyme inhibitor Fluor-de-Lys assay, HDAC6; conditions: HDAC6, Fluor-de-Lys assay
T3 sequence (Q9UBN7 1-1215): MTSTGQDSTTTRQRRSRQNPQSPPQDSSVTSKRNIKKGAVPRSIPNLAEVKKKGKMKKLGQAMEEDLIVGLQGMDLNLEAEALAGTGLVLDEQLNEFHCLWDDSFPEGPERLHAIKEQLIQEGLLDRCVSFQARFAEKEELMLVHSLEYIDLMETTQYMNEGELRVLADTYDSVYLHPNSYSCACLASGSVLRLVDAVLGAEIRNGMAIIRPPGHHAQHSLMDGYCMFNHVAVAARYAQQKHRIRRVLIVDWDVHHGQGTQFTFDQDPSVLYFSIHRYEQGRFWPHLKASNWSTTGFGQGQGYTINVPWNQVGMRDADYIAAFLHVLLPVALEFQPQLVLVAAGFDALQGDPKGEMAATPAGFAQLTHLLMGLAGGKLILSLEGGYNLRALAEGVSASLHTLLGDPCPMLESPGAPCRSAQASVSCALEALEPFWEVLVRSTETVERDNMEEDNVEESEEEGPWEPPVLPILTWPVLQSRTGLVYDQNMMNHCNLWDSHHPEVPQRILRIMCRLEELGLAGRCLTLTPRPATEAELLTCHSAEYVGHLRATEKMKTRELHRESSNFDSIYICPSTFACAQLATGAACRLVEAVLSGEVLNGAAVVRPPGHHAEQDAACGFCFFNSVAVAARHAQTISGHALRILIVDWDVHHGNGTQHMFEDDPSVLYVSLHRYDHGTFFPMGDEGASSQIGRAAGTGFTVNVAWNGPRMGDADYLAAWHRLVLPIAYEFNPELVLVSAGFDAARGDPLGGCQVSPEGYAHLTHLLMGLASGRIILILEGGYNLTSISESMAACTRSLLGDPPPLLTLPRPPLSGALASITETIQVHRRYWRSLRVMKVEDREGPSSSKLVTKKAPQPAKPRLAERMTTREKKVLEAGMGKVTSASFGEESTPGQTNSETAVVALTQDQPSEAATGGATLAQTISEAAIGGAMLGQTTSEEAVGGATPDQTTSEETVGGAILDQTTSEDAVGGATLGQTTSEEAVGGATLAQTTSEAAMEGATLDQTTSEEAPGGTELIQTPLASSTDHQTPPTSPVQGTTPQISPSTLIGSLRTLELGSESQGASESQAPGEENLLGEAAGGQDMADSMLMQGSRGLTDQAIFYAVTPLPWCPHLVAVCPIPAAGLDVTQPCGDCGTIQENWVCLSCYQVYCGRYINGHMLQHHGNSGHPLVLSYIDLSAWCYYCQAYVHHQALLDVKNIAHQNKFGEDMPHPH

[4] = target: T4, Recombinant human HDAC1 (Homo sapiens, UniProt Q13547); test: Human HDAC enzyme inhibitor Fluor-de-Lys assay, HDAC1; conditions: recombinant human HDAC1, Fluor-de-Lys assay
T4 construct: FLAG (C); made in house
Outline: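 Fluor-de-Lys format at room temperature (23° C.): compounds titrated 10-point, 1:3, preincubated with HDAC before substrate addition; HDAC1 run at 0.3 nM enzyme with 20 μM BML-KI104. Developer with excess HDAC inhibitor ends the reaction, and trypsin-liberated AMC fluorescence is the read-out.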

T4 sequence (Q13547 whole entry): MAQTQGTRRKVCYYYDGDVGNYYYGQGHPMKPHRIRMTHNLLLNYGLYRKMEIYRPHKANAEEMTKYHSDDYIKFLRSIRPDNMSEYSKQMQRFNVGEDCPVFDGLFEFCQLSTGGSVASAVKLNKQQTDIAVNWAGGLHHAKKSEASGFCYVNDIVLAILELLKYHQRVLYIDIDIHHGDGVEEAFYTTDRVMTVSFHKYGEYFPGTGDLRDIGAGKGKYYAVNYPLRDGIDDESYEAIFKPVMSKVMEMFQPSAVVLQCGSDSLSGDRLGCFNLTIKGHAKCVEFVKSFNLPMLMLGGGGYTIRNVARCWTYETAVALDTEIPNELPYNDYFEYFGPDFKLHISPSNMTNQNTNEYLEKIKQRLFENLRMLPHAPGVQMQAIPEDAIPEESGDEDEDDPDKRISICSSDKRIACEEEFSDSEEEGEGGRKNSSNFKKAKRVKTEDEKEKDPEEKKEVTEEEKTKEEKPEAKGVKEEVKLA
T2 sequence (Q92769 whole entry): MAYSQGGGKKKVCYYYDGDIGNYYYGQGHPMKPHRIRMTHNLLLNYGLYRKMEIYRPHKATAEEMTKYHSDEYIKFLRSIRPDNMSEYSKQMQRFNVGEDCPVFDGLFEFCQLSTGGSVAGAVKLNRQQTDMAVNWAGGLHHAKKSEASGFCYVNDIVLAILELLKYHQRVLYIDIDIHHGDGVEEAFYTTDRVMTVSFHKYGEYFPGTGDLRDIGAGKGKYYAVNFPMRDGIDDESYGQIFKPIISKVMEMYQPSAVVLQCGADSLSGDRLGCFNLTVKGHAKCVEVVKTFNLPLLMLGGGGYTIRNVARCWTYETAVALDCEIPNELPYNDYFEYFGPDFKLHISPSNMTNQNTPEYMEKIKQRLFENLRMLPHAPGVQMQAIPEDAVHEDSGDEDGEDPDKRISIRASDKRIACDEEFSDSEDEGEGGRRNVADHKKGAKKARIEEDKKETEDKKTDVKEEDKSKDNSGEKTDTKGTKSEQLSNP
T1 sequence (O15379 whole entry): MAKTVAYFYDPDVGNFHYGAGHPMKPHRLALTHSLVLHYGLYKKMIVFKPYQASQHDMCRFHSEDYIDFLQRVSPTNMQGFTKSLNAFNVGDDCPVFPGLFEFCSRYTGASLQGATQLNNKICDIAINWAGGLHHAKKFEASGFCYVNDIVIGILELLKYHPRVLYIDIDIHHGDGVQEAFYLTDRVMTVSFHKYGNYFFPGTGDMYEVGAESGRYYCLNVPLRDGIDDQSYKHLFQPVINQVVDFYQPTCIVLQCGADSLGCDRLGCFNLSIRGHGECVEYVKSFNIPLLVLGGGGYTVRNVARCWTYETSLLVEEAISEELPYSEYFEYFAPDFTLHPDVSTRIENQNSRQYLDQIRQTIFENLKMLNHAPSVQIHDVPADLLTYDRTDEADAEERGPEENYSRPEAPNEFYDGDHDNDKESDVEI
T1 sequence (Q9Y618 1-899 partner limits assumed): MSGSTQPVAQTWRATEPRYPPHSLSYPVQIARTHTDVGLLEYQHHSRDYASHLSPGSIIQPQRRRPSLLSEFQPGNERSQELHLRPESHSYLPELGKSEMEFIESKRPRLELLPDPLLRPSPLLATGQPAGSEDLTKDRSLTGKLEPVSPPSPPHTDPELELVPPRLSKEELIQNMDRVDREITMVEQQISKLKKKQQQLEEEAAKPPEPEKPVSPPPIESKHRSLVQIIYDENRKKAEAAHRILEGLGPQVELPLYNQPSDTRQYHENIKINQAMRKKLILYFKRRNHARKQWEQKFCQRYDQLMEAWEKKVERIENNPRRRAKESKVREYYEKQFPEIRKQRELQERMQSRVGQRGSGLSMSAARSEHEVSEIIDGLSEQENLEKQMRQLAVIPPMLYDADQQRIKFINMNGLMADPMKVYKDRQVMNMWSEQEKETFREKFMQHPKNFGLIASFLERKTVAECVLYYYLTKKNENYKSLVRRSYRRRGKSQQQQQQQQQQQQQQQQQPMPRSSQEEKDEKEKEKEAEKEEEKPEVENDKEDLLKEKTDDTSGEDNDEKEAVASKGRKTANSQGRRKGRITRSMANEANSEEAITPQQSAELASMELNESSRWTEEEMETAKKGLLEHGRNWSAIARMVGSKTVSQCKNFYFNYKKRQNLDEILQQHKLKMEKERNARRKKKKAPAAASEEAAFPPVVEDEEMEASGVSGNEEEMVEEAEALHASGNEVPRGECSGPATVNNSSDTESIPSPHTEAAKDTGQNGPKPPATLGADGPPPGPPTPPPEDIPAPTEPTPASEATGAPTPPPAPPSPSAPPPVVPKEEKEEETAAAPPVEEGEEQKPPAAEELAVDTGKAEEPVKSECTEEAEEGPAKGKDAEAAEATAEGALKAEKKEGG

With `CCC(=O)CCCCC[C@H](NC(=O)[C@H]1CC[C@@]2(CC1)OC(=O)c1ccncc12)c1ncc(-c2ccccc2)[nH]1` [Compound 372] the IC50 [1] was 14.1 nM, the IC50 [2] was 416 nM and the IC50 [3] was 10200 nM. For the same compound, the IC50 [4] was 92.5 nM.
For `CCC(=O)CCCCC[C@H](NC(=O)C1=NOC2(CCN(C)CC2)C1)c1ncc(-c2ccc(Cl)cc2OC)o1` [Compound 390], the IC50 [1] was 39.4 nM, the IC50 [2] was 159 nM and the IC50 [3] was 309 nM. For the same compound, the IC50 [4] was 18 nM.
For `CCC(=O)CCCCC[C@H](NC(=O)C1=NOC2(CCN(C)CC2)C1)c1ncc(-c2ccc(-c3ccccn3)cc2OC)o1` [Compound 391], the IC50 [1] was 18.6 nM, the IC50 [2] was 74.5 nM and the IC50 [3] was over 900 nM. It also gave an IC50 [4] of 9.57 nM.
With `CCC(=O)CCCCC[C@H](NC(=O)C1CC12CCOCC2)c1ncc(-c2cc3ccc(C)nc3cc2OC)[nH]1` (single isomer, unassigned) [Compound 413] the IC50 [1] was 61.9 nM, the IC50 [2] was 155 nM and the IC50 [3] was over 900 nM. The IC50 [4] was 16.2 nM.
With `CCC(=O)CCCCC[C@H](NC(=O)[C@H]1CC12CCN(C)CC2)c1ncc(-c2cc3ocnc3cc2OC)o1` [Compound 408] the IC50 [1] was 7.37 nM, the IC50 [2] was 36.1 nM and the IC50 [3] was 647 nM. It also gave an IC50 [4] of 3.82 nM.
In the case of `CCCC(=O)CCCCC[C@H](N)c1ncc(-c2cc3ccc(C)nc3cc2OC)[nH]1` [Compound A30], the IC50 [1] is reported as 95.6 nM, the IC50 [2] is reported as 304 nM and the IC50 [3] is reported as over 900 nM. It also gave an IC50 [4] of 60.6 nM.
`CCC(=O)CCCCC[C@H](NC(=O)C1=NOC2(CCN(C)CC2)C1)c1ncc(-c2cc3ccncc3cc2OC)o1` [Compound 415] gave an IC50 [1] of 7.82 nM, an IC50 [2] of 33.1 nM and an IC50 [3] of over 900 nM. The IC50 [4] was 3.31 nM.
Compound `CCC(=O)CCCCC[C@H](NC(=O)[C@H]1CC[C@@]2(CC1)OC(=O)c1cccnc12)c1nnc(-c2cc3ccccc3nc2OC)o1` [Compound 366] has an IC50 [1] of 37.3 nM, an IC50 [2] of 321 nM and an IC50 [3] of 2760 nM. The IC50 [4] was 89.4 nM.
`CCC(=O)CCCCC[C@H](NCc1ccncc1)c1ncc(-c2cc3ccc(C)nc3cc2OC)[nH]1` [Compound 404] gave an IC50 [1] of 501 nM, an IC50 [2] of over 900 nM and an IC50 [3] of over 900 nM. The IC50 [4] was 367 nM.
`CCC(=O)CCCCCC(N)(COC)c1ncc(-c2cc3ccc(C)nc3cc2OC)[nH]1` (stereo not drawn) [Compound 414, 9-amino-10-methoxy-9-[5-(7-methoxy-2-methylquinolin-6-yl)-1H-imidazol-2-yl]decan-3-one] was tested, and the IC50 [1] was over 900 nM, the IC50 [2] was over 900 nM and the IC50 [3] was over 900 nM. The IC50 [4] was over 900 nM.
`CCC(=O)CCCCC[C@H](NCC1CC1)c1ncc(-c2cc3ccc(C)nc3cc2OC)[nH]1` [Compound 398, (S)-9-((cyclopropylmethyl)amino)-9-(5-(7-methoxy-2-methylquinolin-6-yl)-1H-imidazol-2-yl)nonan-3-one] showed an IC50 [1] of 241 nM, an IC50 [2] of 810 nM and an IC50 [3] of over 900 nM. The IC50 [4] was 186 nM.
Work on `CCC(=O)CCCCC[C@H](NC(=O)CCN1C(=O)C(CC)=NC12CCOCC2)c1ncc(-c2ccccc2)[nH]1` [Compound 384] yielded an IC50 [1] of 12.6 nM, an IC50 [2] of 154 nM and an IC50 [3] of 10300 nM. The IC50 [4] was 37.3 nM.
Work on `CCC(=O)CCCCC[C@H](NC(=O)[C@H]1CC12CCN(CC1CC1)CC2)c1ncc(-c2cc3ccc(C)nc3cc2OC)o1` [Compound 422] yielded an IC50 [1] of 0.08 nM, an IC50 [2] of 0.7 nM and an IC50 [3] of 113 nM. For the same compound, the IC50 [4] was 0.17 nM.
With `CCC(=O)CCCCC[C@H](NC(=O)[C@H]1CC[C@]2(CC1)OC(=O)c1ncccc12)c1nnc(-c2cc3ccccc3nc2OC)o1` [Compound 367] the IC50 [1] was 10.7 nM, the IC50 [2] was 67.6 nM and the IC50 [3] was 2110 nM. For the same compound, the IC50 [4] was 25.9 nM.
Work on `CCC(=O)CCCCC[C@H](NC(=O)C1=NOC2(CCN(C)CC2)C1)c1ncc(-c2ccc(-c3ccncc3)cc2OC)o1` [Compound 395] yielded an IC50 [1] of 6.78 nM, an IC50 [2] of 36.3 nM and an IC50 [3] of over 900 nM. The IC50 [4] was 2.42 nM.
